Measured values from ChEMBL document CHEMBL1201862, “PubChem BioAssay data set” (2004).
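Values below derive from 48-hour exposures of cells grown in 96-well plates, with endpoints linearly interpolated between the two concentrations bracketing the appropriate inhibition level. GI50 = concentration required for 50% inhibition of growth.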 Activity calls are given as the source filed them. Rule as the data show it: active = GI50 up to about 1.1 µM and inactive = higher. Non-standard residues stand in square brackets, D forms with d. Residues, ends and D or L forms follow the SMILES beside them. *: point of attachment. Ac5c = NC1(C(=O)O)CCCC1; Boc = CC(C)(C)OC(=O)*; tBu = CC(C)(C)*

Experiments:
Assay in all cases: DTP human tumour cell line panel, 48 h
786-0 = system: 786-0
SK-OV-3 = system: SK-OV-3
DU-145 = system: DU-145
SNB-75 = system: SNB-75
HL-60 = system: HL-60
NCI-H460 = system: NCI-H460
SNB-19 = system: SNB-19
LOX IMVI = system: LOX IMVI
MOLT-4 = system: MOLT-4
HCC 2998 = system: HCC 2998
HCT-116 = system: HCT-116
IGROV-1 = system: IGROV-1
TK-10 = system: TK-10
MCF7 = system: MCF7
KM12 = system: KM12
UO-31 = system: UO-31
K562 = system: K562
SN12C = system: SN12C
RPMI-8226 = system: RPMI-8226

Compound | GI50 (786-0) | GI50 (SK-OV-3) | GI50 (DU-145) | GI50 (SNB-75) | GI50 (HL-60) | GI50 (NCI-H460) | GI50 (SNB-19) | GI50 (LOX IMVI) | GI50 (MOLT-4) | GI50 (HCC 2998) | GI50 (HCT-116) | GI50 (IGROV-1) | GI50 (TK-10) | GI50 (MCF7) | GI50 (KM12) | GI50 (UO-31) | GI50 (K562) | GI50 (SN12C) | GI50 (RPMI-8226)
COc1c2ccsc2c(OC)c2ccsc12 | > 100 µM (inactive) | > 100 µM (inactive) | > 100 µM (inactive) | 42.6 µM (inactive) | > 100 µM (inactive) | > 100 µM (inactive) | > 100 µM (inactive) | > 100 µM (inactive) | > 100 µM (inactive) | > 100 µM (inactive) | > 100 µM (inactive) | > 100 µM (inactive) | > 100 µM (inactive) | > 100 µM (inactive) | > 100 µM (inactive) | > 100 µM (inactive) | > 100 µM (inactive) | > 100 µM (inactive) | –
Cc1c(-c2ccccc2)c(C#N)c2nnc(C(N)=O)c(N)n12 | > 100 µM (inactive) | 70.5 µM (inactive) | > 100 µM (inactive) | – | > 100 µM (inactive) | > 100 µM (inactive) | > 100 µM (inactive) | > 100 µM (inactive) | > 100 µM (inactive) | > 100 µM (inactive) | > 100 µM (inactive) | > 100 µM (inactive) | > 100 µM (inactive) | > 100 µM (inactive) | > 100 µM (inactive) | > 100 µM (inactive) | > 100 µM (inactive) | > 100 µM (inactive) | > 100 µM (inactive)
CCn1nc2c3c(ncn3C(C)(C)O2)c1=O | > 100 µM (inactive) | > 100 µM (inactive) | > 100 µM (inactive) | – | > 100 µM (inactive) | > 100 µM (inactive) | > 100 µM (inactive) | > 100 µM (inactive) | > 100 µM (inactive) | > 100 µM (inactive) | > 100 µM (inactive) | > 100 µM (inactive) | > 100 µM (inactive) | > 100 µM (inactive) | > 100 µM (inactive) | > 100 µM (inactive) | > 100 µM (inactive) | > 100 µM (inactive) | > 100 µM (inactive)
CC1C[C@]2(C)C(=S)Nc3ccccc3[C@@H]2Nc2ccccc21 (stereo not given in full) | 16.3 µM (inactive) | – | 4 µM (inactive) | 13.9 µM (inactive) | 33.5 µM (inactive) | 13.2 µM (inactive) | 21.7 µM (inactive) | 13.4 µM (inactive) | 17.5 µM (inactive) | 22.2 µM (inactive) | 12.6 µM (inactive) | 18.3 µM (inactive) | 19 µM (inactive) | 13 µM (inactive) | 15.5 µM (inactive) | 18.7 µM (inactive) | 26.6 µM (inactive) | 17.9 µM (inactive) | 23.4 µM (inactive)
O=C1/C(=C/c2ccc(Br)s2)NC(=S)N1CN1CCCCC1 | 36.4 µM (inactive) | – | 38.1 µM (inactive) | 44.6 µM (inactive) | 15.4 µM (inactive) | 36.1 µM (inactive) | 46.9 µM (inactive) | 21.5 µM (inactive) | 23.4 µM (inactive) | 31 µM (inactive) | 31 µM (inactive) | 42.1 µM (inactive) | 34.5 µM (inactive) | 20.6 µM (inactive) | 35.6 µM (inactive) | 24.5 µM (inactive) | 23.1 µM (inactive) | 34.8 µM (inactive) | 17.6 µM (inactive)
CC(=O)N1NC(c2ccccc2)=CC(=O)/C1=C/C(=O)c1ccccc1 | > 100 µM (inactive) | > 100 µM (inactive) | > 100 µM (inactive) | – | 35.2 µM (inactive) | 71.1 µM (inactive) | 58.7 µM (inactive) | 40.9 µM (inactive) | 52.5 µM (inactive) | > 100 µM (inactive) | 62.2 µM (inactive) | 34.3 µM (inactive) | 48.8 µM (inactive) | 43.7 µM (inactive) | 75.5 µM (inactive) | 98.4 µM (inactive) | 56 µM (inactive) | 82.8 µM (inactive) | 31.3 µM (inactive)
C/C=C/COc1cc(NC(=S)c2ccoc2C)ccc1OC | 75.3 µM (inactive) | 61.1 µM (inactive) | 71.1 µM (inactive) | 27.7 µM (inactive) | 60.3 µM (inactive) | – | 26.7 µM (inactive) | > 100 µM (inactive) | > 100 µM (inactive) | > 100 µM (inactive) | > 100 µM (inactive) | 55.2 µM (inactive) | 97.1 µM (inactive) | > 100 µM (inactive) | > 100 µM (inactive) | 61.4 µM (inactive) | – | 62.1 µM (inactive) | 23 µM (inactive)
COC1=CC(=O)c2c(O)ccc(O)c2C1=O | 14.6 µM (inactive) | 18.6 µM (inactive) | 1.78 µM (inactive) | 1.91 µM (inactive) | 3.77 µM (inactive) | 5.04 µM (inactive) | 4.75 µM (inactive) | – | 13.8 µM (inactive) | 4.49 µM (inactive) | 4.6 µM (inactive) | 18.1 µM (inactive) | 14.7 µM (inactive) | 2.82 µM (inactive) | 6.93 µM (inactive) | 17.3 µM (inactive) | 6.68 µM (inactive) | 2.65 µM (inactive) | 9.2 µM (inactive)
CSC1=C(SC)SC(=C2SC3=C(SC(=C4SCCS4)S3)S2)S1 | > 100 µM (inactive) | > 100 µM (inactive) | > 100 µM (inactive) | > 100 µM (inactive) | > 100 µM (inactive) | > 100 µM (inactive) | > 100 µM (inactive) | > 100 µM (inactive) | > 100 µM (inactive) | > 100 µM (inactive) | > 100 µM (inactive) | > 100 µM (inactive) | > 100 µM (inactive) | > 100 µM (inactive) | > 100 µM (inactive) | > 100 µM (inactive) | – | > 100 µM (inactive) | > 100 µM (inactive)
N=C(/C=C/c1ccc(-c2cn3cc(/C=C/C(=N)N4CCCC4)ccc3n2)cc1)N1CCCC1 | 85.5 µM (inactive) | > 100 µM (inactive) | 50 µM (inactive) | > 100 µM (inactive) | > 100 µM (inactive) | 81.3 µM (inactive) | > 100 µM (inactive) | – | > 100 µM (inactive) | > 100 µM (inactive) | 90.8 µM (inactive) | > 100 µM (inactive) | > 100 µM (inactive) | > 100 µM (inactive) | 60.3 µM (inactive) | > 100 µM (inactive) | > 100 µM (inactive) | > 100 µM (inactive) | > 100 µM (inactive)
Nc1nc(NCC2(CO)CCC2)cc(=O)[nH]1 | > 100 µM (inactive) | > 100 µM (inactive) | > 100 µM (inactive) | > 100 µM (inactive) | > 100 µM (inactive) | > 100 µM (inactive) | > 100 µM (inactive) | > 100 µM (inactive) | > 100 µM (inactive) | > 100 µM (inactive) | > 100 µM (inactive) | > 100 µM (inactive) | – | > 100 µM (inactive) | > 100 µM (inactive) | > 100 µM (inactive) | > 100 µM (inactive) | > 100 µM (inactive) | > 100 µM (inactive)
CC1(C)O[C@H]2OC(CO)C(N=[N+]=[N-])[C@H]2O1 (stereo not given in full) | > 100 µM (inactive) | – | > 100 µM (inactive) | > 100 µM (inactive) | > 100 µM (inactive) | > 100 µM (inactive) | > 100 µM (inactive) | > 100 µM (inactive) | > 100 µM (inactive) | > 100 µM (inactive) | > 100 µM (inactive) | > 100 µM (inactive) | > 100 µM (inactive) | > 100 µM (inactive) | > 100 µM (inactive) | > 100 µM (inactive) | – | > 100 µM (inactive) | > 100 µM (inactive)
N#Cc1c(O)nc2nn3c4ccc5ccccc5c4nnc3c2c1-c1ccc(Cl)cc1 | 2.59 µM (inactive) | 3.3 µM (inactive) | 1.95 µM (inactive) | – | 0.421 µM (active) | 2.24 µM (inactive) | 3.13 µM (inactive) | 1.83 µM (inactive) | 2.4 µM (inactive) | 2.68 µM (inactive) | 2.4 µM (inactive) | 1.2 µM (inactive) | 5.89 µM (inactive) | 1.75 µM (inactive) | 2.8 µM (inactive) | 2.38 µM (inactive) | 4.16 µM (inactive) | 3.34 µM (inactive) | 2.9 µM (inactive)
C[C@@H]1OC2(O)[C@@H]3CCCN3C(=O)N(Cc3ccccc3)N2C1=O (stereo not given in full) | > 100 µM (inactive) | > 100 µM (inactive) | > 100 µM (inactive) | 0.331 µM (active) | > 100 µM (inactive) | > 100 µM (inactive) | > 100 µM (inactive) | > 100 µM (inactive) | > 100 µM (inactive) | > 100 µM (inactive) | > 100 µM (inactive) | > 100 µM (inactive) | > 100 µM (inactive) | > 100 µM (inactive) | > 100 µM (inactive) | – | – | > 100 µM (inactive) | –
CC(OC(C)(C)C)C1NC(=O)C(CCCCNC(=O)OC(C)(C)C)NC(=O)C(Cc2c[nH]c3ccccc23)NC(=O)C(Cc2ccccc2)NC(=O)C2(CCCC2)NC(=O)C(Cc2ccccc2)NC1=O (stereo not given) (cyclo([Ac5c]FWK(Boc)T(tBu)F); configuration not given here) | 16 µM (inactive) | 68.4 µM (inactive) | 50.9 µM (inactive) | – | 17.5 µM (inactive) | 36.7 µM (inactive) | 34.2 µM (inactive) | 19.2 µM (inactive) | 7.71 µM (inactive) | 19 µM (inactive) | 33.3 µM (inactive) | 16.2 µM (inactive) | 24.8 µM (inactive) | 18.5 µM (inactive) | 29.4 µM (inactive) | – | 27.8 µM (inactive) | 29.9 µM (inactive) | 10.7 µM (inactive)
